Here are results for two molecules from patent US20220280543A1, “DDX17 AND NLRC4 TARGETING FOR INFLAMMATORY DISEASES” (University of Virginia Patent Foundation, priority 2019, published 2022).

“Also recorded” adds a separate entry of the source.

In data set [1] the test system is NLRC4 phosphorylation (site S533). Briefly: Alu RNA induced NLRC4 phosphorylation (S533) in BMDM pre-treated with kinase inhibitors, immunoblot. In kind it is cell-based, mouse. Conditions: BMDM pre-treated 1 hour with inhibitor at 2 μM or 5 μM, then Alu RNA transfection (100 pmol). As for the experimental part:
(§1) FIG. 2. SINE RNA induced NLRC4 phosphorylation (site S533) through protein Kinase C Delta. BMDM cell pre-treated with the LRRK2 Kinase inhibitor gsk2578215a (GSK; 5-(2-Fluoro-4-pyridinyl)-2-(phenylmethoxy)-N-3-pyridinyl-benzamide; CAS Number 1285515-21-0; Sigma-Aldrich, St. Louis, Mo., United States of America) or the PKC delta inhibitor Rottlerin (CAS Number 82-08-6; Sigma-Aldrich) at 2 μM or 5 μM, and treated with Alu RNA (SEQ ID NO: 86) transfection or transfection reagent alone (Mock). NLRC4 phosphorylation (P-NLRC4) and supernatant caspase-1 activation were detected by SDS-PAGE. […] PKC delta inhibitor, Rottlerin blocked Alu RNA-induced NLRC4 phosphorylation and caspase-1 activation. The p-NLRC4 and caspase-1 (p20) bands were indicated with black arrows.
(§2) Previous studies have shown that NLRC4 inflammasome activation in response to Salmonella exposure requires two steps for its activation, phosphorylation on Ser533 residue of NLRC4 and NAIP mediated oligomerization of NLRC4. […] Moreover, treatment with SINE RNAs induced caspase-1 p20 cleavage, indicative of inflammasome activation (FIG. 2). For the subsequent experiments in this study, we used Alu RNA (SEQ ID NO: 86) as the stimulus to activate the NLRC4 inflammasome. To date, two kinases are reported to phosphorylate NLRC4 at S533: protein kinase C delta (PKCδ) and leucine rich repeat-containing kinase-2 (LRRK2). […]

Data set [2] concerns caspase-1. Briefly: Alu RNA induced caspase-1 activation (p20 in supernatant) in BMDM pre-treated with kinase inhibitors. Type of data set: cell-based, mouse. To be noted: BMDM pre-treated 1 hour with inhibitor at 2 μM or 5 μM, then Alu RNA transfection (100 pmol). As for the experimental part: as §1, §2
Data set [3] concerns the molecule itself. As to the kind of experiment: homo-oligomerization, Tris-glycine native PAGE, Alu RNA-transfected human RPE cells. From the text: FIGS. 24A and 24B. Alu RNA (SEQ ID NO: 86) induced NLRC4 activation in human RPE cells. To test whether Alu RNA (SEQ ID NO: 86) induces NLRC4 activation in human RPE, we transfected human RPE with Alu RNA (SEQ ID NO: 86 at 100 pmol). FIG. 24A. Immunofluorescence staining on NLRC4 show Alu RNA (SEQ ID NO: 86) induced cytosolic NLRC4 punctate in hRPE cells. The NLRC4 aggregates induced by Alu RNA (SEQ ID NO: 86) are indicated by white arrows. FIG. 24B. Alu RNA (SEQ ID NO: 86) induced NLRC4 (p-NLRC4) phosphorylation and oligomerization. Loading control show by Actin. NLRC4 oligomers were detected by Tris-glycine native PAGE. […] The band of NLRC4 oligomers is indicated by black arrow.

In data set [4] the target is T1, human NLR family pyrin domain containing 3 (NLRP3) (human, UniProt Q96P20 1-1036).
T1 construct: Endogenous protein of human RPE cells
T1 sequence (Q96P20 whole entry, the tested form may be a part): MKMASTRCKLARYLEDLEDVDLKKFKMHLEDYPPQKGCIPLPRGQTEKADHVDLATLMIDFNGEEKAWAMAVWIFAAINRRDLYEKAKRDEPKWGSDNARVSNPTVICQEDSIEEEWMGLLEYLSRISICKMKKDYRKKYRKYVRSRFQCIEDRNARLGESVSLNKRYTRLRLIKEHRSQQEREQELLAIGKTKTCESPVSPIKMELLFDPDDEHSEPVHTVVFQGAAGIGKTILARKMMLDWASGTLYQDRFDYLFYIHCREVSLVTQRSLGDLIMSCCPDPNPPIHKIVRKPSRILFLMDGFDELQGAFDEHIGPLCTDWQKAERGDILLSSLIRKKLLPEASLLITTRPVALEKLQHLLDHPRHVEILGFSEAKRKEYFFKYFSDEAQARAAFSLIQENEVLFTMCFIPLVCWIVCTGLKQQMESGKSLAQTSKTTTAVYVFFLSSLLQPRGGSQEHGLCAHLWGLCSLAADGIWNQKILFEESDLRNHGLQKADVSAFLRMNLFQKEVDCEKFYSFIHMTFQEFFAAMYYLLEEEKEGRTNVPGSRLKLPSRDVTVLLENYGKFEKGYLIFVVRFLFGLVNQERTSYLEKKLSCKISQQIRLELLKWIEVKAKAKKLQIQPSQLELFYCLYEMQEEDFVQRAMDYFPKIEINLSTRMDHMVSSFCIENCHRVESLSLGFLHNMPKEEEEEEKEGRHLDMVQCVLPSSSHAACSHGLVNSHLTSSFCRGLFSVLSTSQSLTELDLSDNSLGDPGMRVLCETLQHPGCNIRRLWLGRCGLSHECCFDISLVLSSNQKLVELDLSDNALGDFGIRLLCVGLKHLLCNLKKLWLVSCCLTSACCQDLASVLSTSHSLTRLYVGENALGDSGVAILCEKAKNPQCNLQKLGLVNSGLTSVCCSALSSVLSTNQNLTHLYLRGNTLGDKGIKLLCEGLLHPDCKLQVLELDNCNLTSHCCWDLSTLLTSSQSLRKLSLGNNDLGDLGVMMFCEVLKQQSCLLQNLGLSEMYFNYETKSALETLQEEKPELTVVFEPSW
Briefly: proximity ligation assay (PLA) in human RPE cells transfected with biotinylated Alu RNA. As for the experimental part: FIG. 37. Alu RNA (SEQ ID NO: 86) induces the assembly of NLRC4 and NLRP3 complex. Human RPE cells were transfected with biotinylated Alu RNA (SEQ ID NO: 86 at 100 pmol) by LIPOFECTAMINE™ 3000 brand transfection reagent (Lipo; ThermoFisher Scientific). The assembly of NLRC4 and NLRP3 complex was evaluated by Proximity Ligation Assay (PLA). […] The signal of NLRC4-NLRP3 complexes is indicated by the white arrow.
Human RPE cells were treated with biotinylated Alu RNA (SEQ ID NO: 86 at 100 pmol). The assembly of NLRC4 and NLRP3 complex was evaluated by Proximity Ligation Assay (PLA).

As for `CC(=O)c1c(O)c(C)c(O)c(Cc2c(O)c3c(c(C(=O)/C=C/c4ccccc4)c2O)OC(C)(C)C=C3)c1O` [Rottlerin], the “Alu RNA induced phosphorylation of NLRC4” value in data set [1] is listed as “blocked; also recorded: inhibited”. Also, in data set [2], the “Alu RNA induced caspase-1 activation” value is “blocked; also recorded: inhibited”.

B1: human NLR family CARD domain containing 4 (NLRC4) (receptor)
chain: MNFIKDNSRALIQRMGMTVIKQITDDLFVWNVLNREEVNIICCEKVEQDAARGIIHMILKKGSESCNLFLKSLKEWNYPLFQDLNGQSLFHQTSEGDLDDLAQDLKDLYHTPSFLNFYPLGEDIDIIFNLKSTFTEPVLWRKDQHHHRVEQLTLNGLLQALQSPCIIEGESGKGKSTLLQRIAMLWGSGKCKALTKFKFVFFLRLSRAQGGLFETLCDQLLDIPGTIRKQTFMAMLLKLRQRVLFLLDGYNEFKPQNCPEIEALIKENHRFKNMVIVTTTTECLRHIRQFGALTAEVGDMTEDSAQALIREVLIKELAEGLLLQIQKSRCLRNLMKTPLFVVITCAIQMGESEFHSHTQTTLFHTFYDLLIQKNKHKHKGVAASDFIRSLDHCGDLALEGVFSHKFDFELQDVSSVNEDVLLTTGLLCKYTAQRFKPKYKFFHKSFQEYTAGRRLSSLLTSHEPEEVTKGNGYLQKMVSISDITSTYSSLLRYTCGSSVEATRAVMKHLAAVYQHGCLLGLSIAKRPLWRQESLQSVKNTTEQEILKAININSFVECGIHLYQESTSKSALSQEFEAFFQGKSLYINSGNIPDYLFDFFEHLPNCASALDFIKLDFYGGAMASWEKAAEDTGGIHMEEAPETYIPSRAVSLFFNWKQEFRTLEVTLRDFSKLNKQDIRYLGKIFSSATSLRLQIKRCAGVAGSLSLVLSTCKNIYSLMVEASPLTIEDERHITSVTNLKTLSIHDLQNQRLPGGLTDSLGNLKNLTKLIMDNIKMNEEDAIKLAEGLKNLKKMCLFHLTHLSDIGEGMDYIVKSLSSEPCDLEEIQLVSCCLSANAVKILAQNLHNLVKLSILDLSENYLEKDGNEALHELIDRMNVLEQLTALMLPWGCDVQGSLSSLLKHLEEVPQLVKLGLKNWRLTDTEIRILGAFFGKNPLKNFQQLNLAGNRVSSDGWLAFMGVFENLKQLVFFDFSTKEFLPDPALVRKLSQVLSKLTFLQEARLVGWQFDDDDLSVITGAFKLVTA
notes: Endogenous protein of human RPE cells and of human donor eyes
Turning to B1, the binding result in data set [3] and in data set [4] was “binds” in each case.
